Oligonucleotides are written 5' to 3', each unit as a sugar letter and its base; * is a phosphorothioate linkage, no mark a phosphodiester; rarer units and linkages stand in square brackets, end groups in braces. Plain capitals give the bases only. d = 2'-deoxy (DNA)
Legend:
Type in all cases: cell-based, human
A549 lung cell carcinoma = assay: Relative colony forming efficiency (Example 17, Table 13); conditions: averages of 2-8 determinations
Method: (§1) Colony forming efficiency was determined using standard protocols. […] The test oligonucleotides were added to cell cultures in the presence of 2.5 μg of DOTMA/DOPE (Lipofectin; Life Technologies, Inc.) for four hours. The oligonucleotide was tested at 0.2 μM unless otherwise indicated. Controls were the cultures treated with lipofectin but without the oligonucleotide. […] Surviving cells were visualized by methylene blue staining, and colonies were scored. In some experiments cell aliquots were removed from the culture and viability was determined using the trypan blue exclusion test. Results were analyzed as percent of surviving cells compared to control cells. To test the antisense effects of many of these sequences as phosphorthioate deoxyribonucleotides, they were examined in relative colony forming experiments conducted as described in Example 16 with a series of human tumour cell lines. The results (shown as % inhibition of colony forming ability) obtained with cancer cells derived from the bladder, breast, lung, colon, pancreas, prostate, liver and cervix, are shown in Table 13. The specific cell lines employed are as follows: […]

[1] = system: HCT116 colon cell carcinoma; assay: as above; conditions: averages of 2-8 determinations
Method: as §1

[2] = system: HepG2 hepatocellular carcinoma; assay: as above; conditions: averages of 2-8 determinations
Method: as §1

[3] = system: MDA PaCa-2 pancreatic cell carcinoma; assay: as above; conditions: MIA PaCa-2 pancreatic cell carcinoma; averages of 2-8 determinations
Method: as §1

[4] = system: MDA-MB-231 breast cell adenocarcinoma; assay: as above; conditions: averages of 2-8 determinations
Method: as §1

[5] = system: PC-3 prostrate cell adenocarcinoma; assay: as above; conditions: averages of 2-8 determinations
Method: as §1

[6] = system: T24 bladder cell carcinoma; assay: as above; conditions: averages of 2-8 determinations
Method: as §1

Hela S3 cells = assay: Relative colony forming efficiency, lipofectin +/- oligonucleotide 4 hours; conditions: Hela S3 cervix carcinoma cells; averages of 2-8 determinations
Method: Colony forming efficiency was determined using standard protocols. Briefly, the cells were cultured for 24 hours at 37° C. in growth medium with 10% fetal bovine serum. The cells were washed in 5 ml phosphate buffered saline, pH 7.2, once prior to lipofectin +/−oligonucleotide treatment.
The test oligonucleotides were added to cell cultures in the presence of 2.5 μg of DOTMA/DOPE (Lipofectin; Life Technologies, Inc.) for four hours. The oligonucleotide was tested at 0.2 μM unless otherwise indicated. Controls were the cultures treated with lipofectin but without the oligonucleotide. After 4 hours the medium containing the oligonucleotide was removed and washed with 5 ml of growth medium. The cells were then cultured in growth medium containing 10% fetal bovine serum for seven to ten days. Surviving cells were visualized by methylene blue staining, and colonies were scored. In some experiments cell aliquots were removed from the culture and viability was determined using the trypan blue exclusion test. Results were analyzed as percent of surviving cells compared to control cells.
AS-II-336-20 was tested for the ability to inhibit the proliferation of human tumour cells (Hela). Hela S3 cells (American Type Culture Collection, Rockville, Md., ATCC), and a Hela cell line (Hela 1 mM) previously selected for resistance to the antitumour agent, hydroxyurea, were tested (see results in Table 11). Two experiments were undertaken with Hela S3 cells. […] The same experiment was repeated with the Hela 1 mM cell line and with varying concentrations of the antisense construct AS-II-336-20 (see results in Table 11) with similar results, […] was an effective concentration for inhibiting colony formation.
To test the antisense effects of many of these sequences as phosphorthioate deoxyribonucleotides, they were examined in relative colony forming experiments conducted as described in Example 16 with a series of human tumour cell lines. The results (shown as % inhibition of colony forming ability) obtained with cancer cells derived from the bladder, breast, lung, colon, pancreas, prostate, liver and cervix, are shown in Table 13. The specific cell lines employed are as follows:
T24=bladder cell carcinoma HCT116=colon cell carcinoma A549=lung cell carcinoma MDA-MB-231=breast cell adenocarcinoma […]=pancreatic cell carcinoma PC-3=prostrate cell adenocarcinoma HepG2=hepatocellular carcinoma HeLaS3=cells isolated from a carcinoma of the cervix T-47D=breast ductal carcinoma H596=lung adenosquamous carcinoma cells Colo320=colon cell adenocarcinoma

TTAGAAGTCAGCATCCAAGG (antisense dT*dT*dA*dG*dA*dA*dG*dT*dC*dA*dG*dC*dA*dT*dC*dC*dA*dA*dG*dG) [AS-II-1345-20]
Reduced relative colony forming efficiency, A549 (% inhibition of colony forming ability) (A549 lung cell carcinoma): 73.1% | Reduced relative colony forming efficiency, HCT116 (% inhibition of colony forming ability) [1]: 65.7% | Reduced relative colony forming efficiency, HepG2 (% inhibition of colony forming ability) [2]: 75.42% | Reduced relative colony forming efficiency, MIA PaCa-2 (% inhibition of colony forming ability) [3]: 77.39% | Reduced relative colony forming efficiency, MDA-MB-231 (% inhibition of colony forming ability) [4]: 94.11% | Reduced relative colony forming efficiency, PC-3 (% inhibition of colony forming ability) [5]: 89.58% | Reduced relative colony forming efficiency, T24 (% inhibition of colony forming ability) [6]: 51.26%

GAACATCAGGCAAGCAAAAT (antisense dG*dA*dA*dC*dA*dT*dC*dA*dG*dG*dC*dA*dA*dG*dC*dA*dA*dA*dA*dT) [AS-II-1006-20]
Reduced relative colony forming efficiency, Hela S3 (% inhibition of colony forming ability) (Hela S3 cells): 41.79% | Reduced relative colony forming efficiency, A549 (% inhibition of colony forming ability) (A549 lung cell carcinoma): 61.62% | Reduced relative colony forming efficiency, HCT116 (% inhibition of colony forming ability) [1]: 45.56% | Reduced relative colony forming efficiency, HepG2 (% inhibition of colony forming ability) [2]: 89.31% | Reduced relative colony forming efficiency, MIA PaCa-2 (% inhibition of colony forming ability) [3]: 47.93% | Reduced relative colony forming efficiency, PC-3 (% inhibition of colony forming ability) [5]: 92.58% | Reduced relative colony forming efficiency, T24 (% inhibition of colony forming ability) [6]: 61.49%

AS-II-218220 (antisense dC*dG*dT*dT*dG*dA*dG*dG*dA*dA*dA*dA*dT*dA*dC*dA*dG*dT*dG*dA)
Reduced relative colony forming efficiency, A549 (% inhibition of colony forming ability) (A549 lung cell carcinoma): 90.97% | Reduced relative colony forming efficiency, HCT116 (% inhibition of colony forming ability) [1]: 77.66% | Reduced relative colony forming efficiency, HepG2 (% inhibition of colony forming ability) [2]: 95.48% | Reduced relative colony forming efficiency, MIA PaCa-2 (% inhibition of colony forming ability) [3]: 56.43% | Reduced relative colony forming efficiency, MDA-MB-231 (% inhibition of colony forming ability) [4]: 84.95% | Reduced relative colony forming efficiency, PC-3 (% inhibition of colony forming ability) [5]: 85.91% | Reduced relative colony forming efficiency, T24 (% inhibition of colony forming ability) [6]: 67.76%

GCAAAGAAAGCCAGAACATG (antisense dG*dC*dA*dA*dA*dG*dA*dA*dA*dG*dC*dC*dA*dG*dA*dA*dC*dA*dT*dG) [AS-II-579-20]
Reduced relative colony forming efficiency, A549 (% inhibition of colony forming ability) (A549 lung cell carcinoma): 95.49% | Reduced relative colony forming efficiency, HCT116 (% inhibition of colony forming ability) [1]: 69.08% | Reduced relative colony forming efficiency, HepG2 (% inhibition of colony forming ability) [2]: 94.28% | Reduced relative colony forming efficiency, MIA PaCa-2 (% inhibition of colony forming ability) [3]: 97.55% | Reduced relative colony forming efficiency, MDA-MB-231 (% inhibition of colony forming ability) [4]: 66.89% | Reduced relative colony forming efficiency, PC-3 (% inhibition of colony forming ability) [5]: 88.16% | Reduced relative colony forming efficiency, T24 (% inhibition of colony forming ability) [6]: 76.68%

GAGAAATAAAATGAAACGGC (antisense dG*dA*dG*dA*dA*dA*dT*dA*dA*dA*dA*dT*dG*dA*dA*dA*dC*dG*dG*dC) [AS-II-2164-20]
Reduced relative colony forming efficiency, A549 (% inhibition of colony forming ability) (A549 lung cell carcinoma): 91.15% | Reduced relative colony forming efficiency, HCT116 (% inhibition of colony forming ability) [1]: 50.08% | Reduced relative colony forming efficiency, HepG2 (% inhibition of colony forming ability) [2]: 93.07% | Reduced relative colony forming efficiency, MIA PaCa-2 (% inhibition of colony forming ability) [3]: 89.36% | Reduced relative colony forming efficiency, MDA-MB-231 (% inhibition of colony forming ability) [4]: 69.03% | Reduced relative colony forming efficiency, PC-3 (% inhibition of colony forming ability) [5]: 83.36% | Reduced relative colony forming efficiency, T24 (% inhibition of colony forming ability) [6]: 61.84%

TCAGGCAAGCAAAATCACAG (antisense dT*dC*dA*dG*dG*dC*dA*dA*dG*dC*dA*dA*dA*dA*dT*dC*dA*dC*dA*dG) [AS-II-1001-20]
Reduced relative colony forming efficiency, A549 (% inhibition of colony forming ability) (A549 lung cell carcinoma): 71.36% | Reduced relative colony forming efficiency, HCT116 (% inhibition of colony forming ability) [1]: 55.58% | Reduced relative colony forming efficiency, HepG2 (% inhibition of colony forming ability) [2]: 90.36% | Reduced relative colony forming efficiency, MIA PaCa-2 (% inhibition of colony forming ability) [3]: 64.21% | Reduced relative colony forming efficiency, MDA-MB-231 (% inhibition of colony forming ability) [4]: 82.17% | Reduced relative colony forming efficiency, PC-3 (% inhibition of colony forming ability) [5]: 85.94% | Reduced relative colony forming efficiency, T24 (% inhibition of colony forming ability) [6]: 86.11%

GCCACAGGATAAAAACACAA (antisense dG*dC*dC*dA*dC*dA*dG*dG*dA*dT*dA*dA*dA*dA*dA*dC*dA*dC*dA*dA) [AS-II-2009-20]
Reduced relative colony forming efficiency, A549 (% inhibition of colony forming ability) (A549 lung cell carcinoma): 93.32% | Reduced relative colony forming efficiency, HCT116 (% inhibition of colony forming ability) [1]: 69.92% | Reduced relative colony forming efficiency, HepG2 (% inhibition of colony forming ability) [2]: 96.99% | Reduced relative colony forming efficiency, MIA PaCa-2 (% inhibition of colony forming ability) [3]: 93.74% | Reduced relative colony forming efficiency, MDA-MB-231 (% inhibition of colony forming ability) [4]: 96.25% | Reduced relative colony forming efficiency, PC-3 (% inhibition of colony forming ability) [5]: 83.36% | Reduced relative colony forming efficiency, T24 (% inhibition of colony forming ability) [6]: 61.84%

GCAAAGGCTACAACACGTTC (antisense dG*dC*dA*dA*dA*dG*dG*dC*dT*dA*dC*dA*dA*dC*dA*dC*dG*dT*dT*dC) [AS-II-861-20]
Reduced relative colony forming efficiency, A549 (% inhibition of colony forming ability) (A549 lung cell carcinoma): 95.78% | Reduced relative colony forming efficiency, HCT116 (% inhibition of colony forming ability) [1]: 74.2% | Reduced relative colony forming efficiency, HepG2 (% inhibition of colony forming ability) [2]: 96.08% | Reduced relative colony forming efficiency, MIA PaCa-2 (% inhibition of colony forming ability) [3]: 97.3% | Reduced relative colony forming efficiency, MDA-MB-231 (% inhibition of colony forming ability) [4]: 89.98% | Reduced relative colony forming efficiency, PC-3 (% inhibition of colony forming ability) [5]: 87.33% | Reduced relative colony forming efficiency, T24 (% inhibition of colony forming ability) [6]: 73.5%

GCACATCTTCAGTTCATTTA (antisense dG*dC*dA*dC*dA*dT*dC*dT*dT*dC*dA*dG*dT*dT*dC*dA*dT*dT*dT*dA) [AS-II-1362-20]
Reduced relative colony forming efficiency, A549 (% inhibition of colony forming ability) (A549 lung cell carcinoma): 83.9% | Reduced relative colony forming efficiency, HCT116 (% inhibition of colony forming ability) [1]: 78.47% | Reduced relative colony forming efficiency, HepG2 (% inhibition of colony forming ability) [2]: 80.41% | Reduced relative colony forming efficiency, MIA PaCa-2 (% inhibition of colony forming ability) [3]: 44.14% | Reduced relative colony forming efficiency, MDA-MB-231 (% inhibition of colony forming ability) [4]: 70.22% | Reduced relative colony forming efficiency, PC-3 (% inhibition of colony forming ability) [5]: 77.38%

TTAGTCTTTCCTTCCAGTGA (antisense dT*dT*dA*dG*dT*dC*dT*dT*dT*dC*dC*dT*dT*dC*dC*dA*dG*dT*dG*dA) [AS-II-1254-20]
Reduced relative colony forming efficiency, Hela S3 (% inhibition of colony forming ability) (Hela S3 cells): 7.64% | Reduced relative colony forming efficiency, A549 (% inhibition of colony forming ability) (A549 lung cell carcinoma): 36.74% | Reduced relative colony forming efficiency, HCT116 (% inhibition of colony forming ability) [1]: 28.54% | Reduced relative colony forming efficiency, HepG2 (% inhibition of colony forming ability) [2]: 83.28% | Reduced relative colony forming efficiency, MIA PaCa-2 (% inhibition of colony forming ability) [3]: 3.32% | Reduced relative colony forming efficiency, PC-3 (% inhibition of colony forming ability) [5]: 73.31% | Reduced relative colony forming efficiency, T24 (% inhibition of colony forming ability) [6]: 41.53%

AS-II-114420 (antisense dG*dT*dA*dT*dT*dG*dC*dT*dT*dC*dA*dT*dT*dA*dG*dA*dG*dT*dG*dC)
Reduced relative colony forming efficiency, Hela S3 (% inhibition of colony forming ability) (Hela S3 cells): 50.57% | Reduced relative colony forming efficiency, A549 (% inhibition of colony forming ability) (A549 lung cell carcinoma): 61.81% | Reduced relative colony forming efficiency, HCT116 (% inhibition of colony forming ability) [1]: 54.25% | Reduced relative colony forming efficiency, HepG2 (% inhibition of colony forming ability) [2]: 92.17% | Reduced relative colony forming efficiency, MIA PaCa-2 (% inhibition of colony forming ability) [3]: 46.39% | Reduced relative colony forming efficiency, PC-3 (% inhibition of colony forming ability) [5]: 30.21% | Reduced relative colony forming efficiency, T24 (% inhibition of colony forming ability) [6]: 62.9%

ATGGAAAAAAAAAATCAGCC (antisense dA*dT*dG*dG*dA*dA*dA*dA*dA*dA*dA*dA*dA*dA*dT*dC*dA*dG*dC*dC) [AS-II-1390-20]
Reduced relative colony forming efficiency, A549 (% inhibition of colony forming ability) (A549 lung cell carcinoma): 88.31% | Reduced relative colony forming efficiency, HCT116 (% inhibition of colony forming ability) [1]: 62.18% | Reduced relative colony forming efficiency, HepG2 (% inhibition of colony forming ability) [2]: 90.21% | Reduced relative colony forming efficiency, MIA PaCa-2 (% inhibition of colony forming ability) [3]: 82.77% | Reduced relative colony forming efficiency, MDA-MB-231 (% inhibition of colony forming ability) [4]: 66.89% | Reduced relative colony forming efficiency, PC-3 (% inhibition of colony forming ability) [5]: 76.76% | Reduced relative colony forming efficiency, T24 (% inhibition of colony forming ability) [6]: 61.13%
